Results reported in patent US20080213250A1, “Use of Eph Receptor Inhibitors for the Treatment of Neurodegenerative Diseases” (priority 2004, published 2008).

Legend:
EphA3 = target: T1, EphA3 (Mus musculus, UniProt P29319); assay: Chemical proteomics pull-down with immobilized compound, LC-MS/MS identification; conditions: maximum in any chemical proteomics experiment
T1 sequence (P29319 21-983): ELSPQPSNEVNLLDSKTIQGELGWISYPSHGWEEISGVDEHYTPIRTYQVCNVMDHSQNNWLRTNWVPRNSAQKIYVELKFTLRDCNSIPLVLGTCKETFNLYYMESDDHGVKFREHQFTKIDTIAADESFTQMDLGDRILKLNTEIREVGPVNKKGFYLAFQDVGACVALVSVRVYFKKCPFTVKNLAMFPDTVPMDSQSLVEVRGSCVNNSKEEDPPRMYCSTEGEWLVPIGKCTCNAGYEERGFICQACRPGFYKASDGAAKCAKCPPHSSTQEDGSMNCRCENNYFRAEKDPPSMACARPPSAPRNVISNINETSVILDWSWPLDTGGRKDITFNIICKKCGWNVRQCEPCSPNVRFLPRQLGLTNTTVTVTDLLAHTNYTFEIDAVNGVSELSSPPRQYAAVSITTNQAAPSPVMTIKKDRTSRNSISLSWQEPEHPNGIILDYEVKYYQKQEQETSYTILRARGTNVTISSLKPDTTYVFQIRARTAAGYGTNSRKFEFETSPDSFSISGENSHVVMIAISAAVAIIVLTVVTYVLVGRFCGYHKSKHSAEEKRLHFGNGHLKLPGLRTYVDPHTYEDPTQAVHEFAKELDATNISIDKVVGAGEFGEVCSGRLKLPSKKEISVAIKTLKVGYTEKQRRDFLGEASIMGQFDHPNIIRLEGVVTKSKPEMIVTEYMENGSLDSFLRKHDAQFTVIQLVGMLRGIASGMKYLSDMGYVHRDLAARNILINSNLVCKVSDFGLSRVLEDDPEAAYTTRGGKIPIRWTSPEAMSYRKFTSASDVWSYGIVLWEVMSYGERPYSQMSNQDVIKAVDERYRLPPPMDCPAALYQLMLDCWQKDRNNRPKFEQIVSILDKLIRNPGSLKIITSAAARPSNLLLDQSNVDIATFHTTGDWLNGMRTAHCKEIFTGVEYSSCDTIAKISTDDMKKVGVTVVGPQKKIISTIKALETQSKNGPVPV

EphB6 = target: T2, EphB6 (Mus musculus, UniProt O08644); assay: as above; conditions: maximum in any chemical proteomics experiment
T2 sequence (O08644 33-1014): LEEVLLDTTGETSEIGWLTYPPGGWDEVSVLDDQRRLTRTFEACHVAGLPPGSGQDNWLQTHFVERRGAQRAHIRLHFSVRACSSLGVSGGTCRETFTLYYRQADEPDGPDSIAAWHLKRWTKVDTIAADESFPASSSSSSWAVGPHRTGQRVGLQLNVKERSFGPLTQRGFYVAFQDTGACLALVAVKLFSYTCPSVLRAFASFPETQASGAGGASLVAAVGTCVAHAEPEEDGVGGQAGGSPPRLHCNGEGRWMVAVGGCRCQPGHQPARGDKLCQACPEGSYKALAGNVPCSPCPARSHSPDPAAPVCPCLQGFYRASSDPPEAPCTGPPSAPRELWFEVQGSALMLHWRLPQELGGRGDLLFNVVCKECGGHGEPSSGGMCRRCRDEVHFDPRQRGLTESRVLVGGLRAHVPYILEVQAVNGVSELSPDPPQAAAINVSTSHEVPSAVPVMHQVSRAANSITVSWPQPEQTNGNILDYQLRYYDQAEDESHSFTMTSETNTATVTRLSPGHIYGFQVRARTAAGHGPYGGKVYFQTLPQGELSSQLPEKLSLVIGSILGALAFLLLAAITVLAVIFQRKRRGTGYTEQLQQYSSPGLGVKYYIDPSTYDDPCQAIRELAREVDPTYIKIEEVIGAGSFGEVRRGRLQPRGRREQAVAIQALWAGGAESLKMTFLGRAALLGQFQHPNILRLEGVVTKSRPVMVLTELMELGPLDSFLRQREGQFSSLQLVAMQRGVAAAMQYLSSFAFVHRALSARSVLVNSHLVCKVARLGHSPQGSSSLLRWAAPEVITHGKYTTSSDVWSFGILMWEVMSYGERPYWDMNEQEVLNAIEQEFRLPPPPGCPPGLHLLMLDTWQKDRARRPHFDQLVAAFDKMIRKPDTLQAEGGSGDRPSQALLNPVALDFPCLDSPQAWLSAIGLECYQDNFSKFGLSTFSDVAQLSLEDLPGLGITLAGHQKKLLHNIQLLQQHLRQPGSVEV

TAP-tagged Eph kinases = assay: Autophosphorylation of TAP-tagged Eph kinases in cells; format: cell-based; conditions: in cells (FIG. 2)
Description: Cells are plated in 6-well plates in growth medium (see above). To test potential modulators, preferably inhibitors, of Eph kinase tyrosine phosphorylation, cells are starved in serum-free medium for 4 h. Under these conditions, Eph-TAP kinase is partially constitutively phosphorylated-presumably through autophosphorylation that is commonly associated with over-expression of receptor tyrosine kinases. This feature is exploited to monitor the effect of Eph kinase modulators. Test compounds are diluted (from a stock in DMSO) in serum-free medium and added to cells for indicated times. Cells are chilled on ice and washed with ice-cold PBS. They are then lysed in 300 μl lysis buffer (50 mM Tris-HCl, 1% NP-40, 0.05% SDS, 100 mM NaCl, 1.5 mM MgCl2, 2 mM EDTA, 5% glycerol, pH 7.6) for 20 min at 4 °C and cleared by centrifugation at 16,100×g in a table-top centrifuge for 20 min.
Lysates are subsequently incubated with 20 μl pre-washed rabbit IgG beads (Sigma) for 2 h with constant agitation at 4° C. Beads are finally washed with 1 ml of lysis buffer and immobilized protein complexes are eluted by boiling in 40 μl SDS sample buffer.
Blot membranes are probed with monoclonal antibody 4G10 (Upstate Biotechnology) or with HRP-coupled PAP antibody (see above).

| Structure (SMILES) | maximal number of non-redundant peptides identified, EphA3 (EphA3) | maximal number of non-redundant peptides identified, EphB6 (EphB6) | inhibition of autophosphorylation of TAP-tagged Eph kinases in cells (TAP-tagged Eph kinases) |
| --- | --- | --- | --- |
| CC(C)[C@H](CO)Nc1nc(Nc2ccc(C(=O)O)c(Cl)c2)c2ncn(C(C)C)c2n1 [Purvalanol B] | 1 |  |  |
| CSc1cccc(Nc2ncc3cc(-c4c(Cl)cccc4Cl)c(=O)n(C)c3n2)c1 [PD173955] |  | 7 | potent inhibitors |
